Data taken from US7868026B2, “Therapeutic compounds” (Pfizer Inc., priority 2005, dated 2011).
Like-named read-outs stand apart in the source and are kept apart here.

Legend:
Format in all cases: biochemical
CYP3A4 [1] = biological target: T1, CYP3A4 (Homo sapiens, UniProt P08684); assay: Determination of compound Kiapp against recombinant CYP3A4 enzyme (BFC fluorescent substrate)
Method in brief: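 Kiapp derived from initial velocities over the first 5 min of BFC (5 uM) oxidation, using Morrison's tight-binding equation for non-partial and Szedlacsek's for partial inhibitors. Inhibitor first pre-incubated ≥30 min with CYP3A4 (5.5 or 8 nM, ±b5) in pH 7.0 phosphate/TCEP/2% DMF at room temperature; 200 uM NADPH initiated.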

CYP3A4 [2] = biological target: T1, CYP3A4; assay: Determination of IC50 against CYP3A4 by measurement of inhibition of testosterone metabolism (human liver microsomes, 6-β-OH-testosterone by LC-MS/MS); parameters: 0.1 mg/mL human liver microsomes; settings: read-out: IC50 (Testo.)
Method in brief: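 6-β-OH-testosterone formation was read by LC-MS/MS (MRM, internal standard, standard curve) after eight minutes. Reaction contained testosterone 25 μM, NADPH 1 mM and microsomal protein 0.1 mg/mL in pH 7.4 potassium phosphate (100 mM).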

CYP3A4 [3] = biological target: T1, CYP3A4; assay: Determination of IC50 against CYP3A4 by measurement of inhibition of midazolam metabolism (human liver microsomes, 1-hydroxymidazolam by LC-MS/MS); parameters: 0.1 mg/mL human liver microsomes; settings: 2 μM midazolam, 0.1 mg/mL human liver microsomes
Method in brief: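 Human liver microsomes (0.1 mg/mL) incubated 8 min with 2 μM midazolam and 1 mM NADPH in 100 mM potassium phosphate, pH 7.4. 1-Hydroxymidazolam quantified by LC-MS/MS (MRM) as peak area ratio to internal standard against a metabolite standard curve.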

[4] = Baculo. enzyme preparation, read-out: Kiapp (BFC, Baculo.)
[5] = Super. enzyme preparation, read-out: Kiapp (BFC, Super.)

T1 sequence (P08684 whole entry): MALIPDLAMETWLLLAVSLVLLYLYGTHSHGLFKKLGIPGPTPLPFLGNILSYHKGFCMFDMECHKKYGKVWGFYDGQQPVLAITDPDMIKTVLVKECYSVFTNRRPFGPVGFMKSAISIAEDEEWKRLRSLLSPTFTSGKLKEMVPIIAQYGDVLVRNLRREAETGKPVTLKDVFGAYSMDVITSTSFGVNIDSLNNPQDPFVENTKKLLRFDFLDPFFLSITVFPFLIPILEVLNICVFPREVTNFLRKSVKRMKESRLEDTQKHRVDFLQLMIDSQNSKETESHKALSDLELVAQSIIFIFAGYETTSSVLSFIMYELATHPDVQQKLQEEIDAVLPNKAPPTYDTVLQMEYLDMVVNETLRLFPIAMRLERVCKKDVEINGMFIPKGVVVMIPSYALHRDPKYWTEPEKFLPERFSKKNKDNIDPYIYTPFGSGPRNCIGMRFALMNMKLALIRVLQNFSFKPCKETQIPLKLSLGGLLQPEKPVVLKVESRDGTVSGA

Row | SMILES | Ki (CYP3A4 [1]; [4]) | Ki (CYP3A4 [1]; [5]) | IC50 (CYP3A4 [2]) | IC50 (CYP3A4 [3])
1 | Cc1cncc(NS(=O)(=O)c2ccccc2C(=O)N2CCCC(C)(C)C2)c1 [Example 343, 2-[(3,3-dimethylpiperidin-1-yl)carbonyl]-N-(5-methylpyridin-3-yl)benzenesulfonamide] | 0.206 µM | 0.0603 µM | 0.08 µM | 0.037 µM
2 | Cc1cncc(NS(=O)(=O)c2ccccc2C(=O)N(C)CCc2ccccc2C)c1 [Example 154, N-methyl-N-[2-(2-methylphenyl)ethyl]-2-{[(5-methylpyridin-3-yl)amino]sulfonyl}benzamide] | 0.0115 µM | 0.0032 µM | 0.023 µM | 0.006 µM
3 | Cc1cncc(NS(=O)(=O)c2ccccc2C(=O)N2CC(C)CC(C)C2)c1 (stereo not shown) [Example 333, 2-[(3,5-dimethylpiperidin-1-yl)carbonyl]-N-(5-methylpyridin-3-yl)benzenesulfonamide] | 0.0692 µM | 0.0229 µM | 0.013 µM | 0.024 µM
4 | COc1cncc(NS(=O)(=O)c2ccccc2C(=O)NC2CCCC(C)C2)c1 (stereo not shown) [Example 202, 2-{[(5-methoxypyridin-3-yl)amino]sulfonyl}-N-(3-methylcyclohexyl)benzamide] | 0.0842 µM | 0.0334 µM | 0.007 µM | < 0.003 µM
5 | O=C(c1ccccc1S(=O)(=O)Nc1cncc(Br)c1)N1CCCCC1 [Example 392, N-(5-bromopyridin-3-yl)-2-(piperidin-1-ylcarbonyl)benzenesulfonamide] | > 1 µM | 0.32 µM | 0.009 µM | 0.065 µM
6 | COc1cncc(NS(=O)(=O)c2ccc(F)cc2C(=O)N2CCCC(C)C2)c1 (stereo not shown) [Example 267, 4-fluoro-N-(5-methoxypyridin-3-yl)-2-[(3-methylpiperidin-1-yl)carbonyl]benzenesulfonamide] | 0.27 µM | 0.0432 µM | 0.216 µM | 0.12 µM
7 | CCCCNC(=O)c1ccccc1S(=O)(=O)Nc1cncc(C)c1 [Example 31, N-butyl-2-{[(5-methylpyridin-3-yl)amino]sulfonyl}benzamide] | 0.0701 µM |  | 0.038 µM | 0.023 µM
8 | CC(C)(C)OC(=O)N1CC2(CCN(C(=O)c3ccccc3S(=O)(=O)Nc3cccnc3)CC2)C1 [Example 10, tert-butyl 7-{2-[(pyridin-3-ylamino)sulfonyl]benzoyl}-2,7-diazaspiro[3.5]nonane-2-carboxylate] | > 1 µM | 0.558 µM | > 0.75 µM | 0.279 µM
9 | N#Cc1cncc(NS(=O)(=O)c2ccccc2C(=O)N2CCCCC2)c1 [Example 22, N-(5-cyanopyridin-3-yl)-2-(piperidin-1-ylcarbonyl)benzenesulfonamide] | > 1 µM |  | > 0.75 µM | > 0.75 µM
10 | CN(c1cccnc1)S(=O)(=O)c1ccccc1C(=O)N1CCOCC1 [Example 326, N-methyl-2-(morpholin-4-ylcarbonyl)-N-pyridin-3-ylbenzenesulfonamide] | 0.884 µM | 0.273 µM | 0.164 µM | 0.132 µM
11 | COc1cncc(NS(=O)(=O)c2ccc(Cl)cc2C(=O)N(C)C(C)C)c1 [Example 309, 5-chloro-N-isopropyl-2-{[(5-methoxypyridin-3-yl)amino]sulfonyl}-N-methylbenzamide] | 0.808 µM | 0.145 µM | 0.427 µM | 0.149 µM
12 | CCOc1ccncc1NS(=O)(=O)c1ccccc1C(=O)NCCC(C)C [Example 271, 2-{[(4-ethoxypyridin-3-yl)amino]sulfonyl}-N-(3-methylbutyl)benzamide] | 0.118 µM | 0.0172 µM | 0.021 µM | 0.018 µM
13 | CCOC(=O)N1CCN(C(=O)c2ccccc2S(=O)(=O)Nc2cccnc2)CC1 [Example 36, ethyl 4-{2-[(pyridin-3-ylamino)sulfonyl]benzoyl} piperazine-1-carboxylate] | > 1 µM |  | > 0.75 µM | > 0.75 µM
14 | CCCCNC(=O)c1ccccc1S(=O)(=O)Nc1cncc(C#N)c1 [Example 24, N-butyl-2-{[(5-cyanopyridin-3-yl)amino]sulfonyl}benzamide] | > 1 µM |  | > 0.75 µM | 0.567 µM
15 | COc1cncc(NS(=O)(=O)c2ccc(OCCCN(C)C)cc2C(=O)NCc2ccc(F)cc2)c1 [Example 266, 5-[3-(dimethylamino)propoxy]-N-(4-fluorobenzyl)-2-{[(5-methoxypyridin-3-yl)amino]sulfonyl}benzamide] | 0.145 µM | 0.0268 µM | 0.109 µM | 0.054 µM

Results, then the compound that gave them:

Row | Ki (CYP3A4 [1]; [4]) | Ki (CYP3A4 [1]; [5]) | IC50 (CYP3A4 [2]) | IC50 (CYP3A4 [3]) | SMILES
16 | 0.329 µM |  | 0.169 µM | 0.069 µM | CCCCNC(=O)c1ccccc1S(=O)(=O)Nc1cnccc1OC [Example 19, N-butyl-2-{[(4-methoxypyridin-3-yl)amino]sulfonyl}benzamide]
17 | 0.173 µM | 0.004 µM | 0.009 µM | 0.011 µM | O=C(NCc1ccc(F)cc1)c1ccccc1S(=O)(=O)Nc1cccnc1 [Example 9, N-(4-fluorobenzyl)-2-[(pyridin-3-ylamino)sulfonyl]benzamide]
18 | 0.56 µM |  | 0.073 µM | 0.027 µM | O=C(NCc1cccc2[nH]ccc12)c1ccccc1S(=O)(=O)Nc1cccnc1 [Example 52, N-(1H-indol-4-ylmethyl)-2-[(pyridin-3-ylamino)sulfonyl]benzamide]
19 | > 1 µM | 0.209 µM | 0.027 µM | 0.118 µM | CC(C)(O)c1ccc(CNC(=O)c2ccccc2S(=O)(=O)Nc2cccnc2)cc1 [Example 86, N-[4-(1-hydroxy-1-methylethyl)benzyl]-2-[(pyridin-3-ylamino)sulfonyl]benzamide]
20 | 0.0808 µM | 0.0218 µM | 0.043 µM | 0.025 µM | CCCCCNC(=O)c1ccccc1S(=O)(=O)Nc1cncc(C)c1 [Example 360, 2-{[(5-methylpyridin-3-yl)amino]sulfonyl}-N-pentylbenzamide]
21 | 0.593 µM | 0.14 µM | 0.26 µM | 0.101 µM | CN(c1cccnc1)S(=O)(=O)c1ccccc1C(=O)NCC(C)(C)C [Example 359, N-(2,2-dimethylpropyl)-2-{[methyl(pyridin-3-yl)amino]sulfonyl}benzamide]
22 | 0.0564 µM | 0.0074 µM | 0.025 µM | 0.011 µM | Cc1cncc(NS(=O)(=O)c2ccccc2C(=O)N(C)Cc2cccc(F)c2)c1 [Example 349, N-(3-fluorobenzyl)-N-methyl-2-{[(5-methylpyridin-3-yl)amino]sulfonyl}benzamide]
23 | 0.0016 µM | 0.000618 µM | 0.016 µM | < 0.003 µM | CCOc1cncc(NS(=O)(=O)c2ccccc2C(=O)NCCc2ccccc2C)c1 [Example 292, 2-{[(5-ethoxypyridin-3-yl)amino]sulfonyl}-N-[2-(2-methylphenyl)ethyl]benzamide]
24 | 0.486 µM | 0.0303 µM | 0.0834 µM | 0.0628 µM | CC1CCN(C(=O)c2ccccc2S(=O)(=O)Nc2cccnc2)CC1 [Example 41, 2-[(4-methylpiperidin-1-yl)carbonyl]-N-pyridin-3-ylbenzenesulfonamide]
25 | 0.0977 µM | 0.0168 µM | 0.028 µM | 0.02 µM | Cc1cncc(NS(=O)(=O)c2ccccc2C(=O)N(C)Cc2ccccc2)c1 [Example 335, N-benzyl-N-methyl-2-{[(5-methylpyridin-3-yl)amino]sulfonyl}benzamide]
26 | > 1 µM | 0.453 µM | 0.627 µM | 0.256 µM | COCCNC(=O)c1ccccc1S(=O)(=O)Nc1cccnc1 [Example 261, N-(2-methoxyethyl)-2-[(pyridin-3-ylamino)sulfonyl]benzamide]
27 | 0.0036 µM | 0.0029 µM | 0.006 µM | < 0.003 µM | COc1cncc(NS(=O)(=O)c2ccccc2C(=O)NCc2cccc(Cl)c2C)c1 [Example 206, N-(3-chloro-2-methylbenzyl)-2-{[(5-methoxypyridin-3-yl)amino]sulfonyl}benzamide]
28 | 0.0181 µM | 0.00331 µM | 0.013 µM | 0.009 µM | CCOc1ccncc1NS(=O)(=O)c1ccccc1C(=O)NCCc1ccccc1C [Example 269, 2-{[(4-ethoxypyridin-3-yl)amino]sulfonyl}-N-[2-(2-methylphenyl)ethyl]benzamide]
29 | 0.449 µM | 0.0424 µM | 0.0841 µM | 0.0842 µM | CCCCNC(=O)c1ccccc1S(=O)(=O)Nc1cccnc1 [Example 63, N-butyl-2-[(pyridin-3-ylamino)sulfonyl]benzamide]
30 | 0.314 µM | 0.0637 µM | 0.058 µM | 0.045 µM | Cc1ccncc1NS(=O)(=O)c1ccccc1C(=O)NCCC(C)C [Example 179, N-(3-methylbutyl)-2-{[(4-methylpyridin-3-yl)amino]sulfonyl}benzamide]
31 | 0.385 µM | 0.0142 µM | 0.0545 µM | 0.0406 µM | CN(Cc1ccccc1)C(=O)c1ccccc1S(=O)(=O)Nc1cccnc1 [Example 55, N-benzyl-N-methyl-2-[(pyridin-3-ylamino)sulfonyl]benzamide]
